Test system: 328373-195-R-J1-PDC complex spheroids, viability % test/control
Assay: Anticancer human tumor 328373-195-R-J1-PDC patient-derived head and neck squamous carcinoma cell line growth inhibition [CLK]
Conditions: for IC50: curve of first compound; for viability, T/C: stronger effect = lower value; active = viability on the fitted dose curve at most 10% of control; inactive = the rest
Method in brief: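 Multi-cell-type spheroids combined patient-derived tumor cells with HUVEC endothelial cells and human mesenchymal stem cells. Paired agents were dosed in half-log steps down from about clinical Cmax, or from 10 microM where Cmax was unknown.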

[1] = second compound 0.0316 µM, first compound 0.00316 µM
[2] = second compound 0.0316 µM, first compound 0.01 µM
[3] = second compound 0.0316 µM, first compound 0.0316 µM
[4] = second compound 0.0316 µM, first compound 0.1 µM
[5] = second compound 0.0316 µM, first compound 0.316 µM
[6] = second compound 0.0316 µM, first compound 1 µM
[7] = second compound 0.1 µM, first compound 0.00316 µM
[8] = second compound 0.1 µM, first compound 0.01 µM
[9] = second compound 0.1 µM, first compound 0.0316 µM
[10] = second compound 0.1 µM, first compound 0.1 µM
[11] = second compound 0.1 µM, first compound 0.316 µM
[12] = second compound 0.1 µM, first compound 1 µM
[13] = second compound 0.316 µM, first compound 0.00316 µM
[14] = second compound 0.316 µM, first compound 0.01 µM
[15] = second compound 0.316 µM, first compound 0.0316 µM
[16] = second compound 0.316 µM, first compound 0.1 µM
[17] = second compound 0.316 µM, first compound 0.316 µM
[18] = second compound 0.316 µM, first compound 1 µM
[19] = second compound 1 µM, first compound 0.00316 µM
[20] = second compound 1 µM, first compound 0.01 µM
[21] = second compound 1 µM, first compound 0.0316 µM
[22] = second compound 1 µM, first compound 0.1 µM
[23] = second compound 1 µM, first compound 0.316 µM
[24] = second compound 1 µM, first compound 1 µM
[25] = second compound 3.16 µM, first compound 0.00316 µM
[26] = second compound 3.16 µM, first compound 0.01 µM
[27] = second compound 3.16 µM, first compound 0.0316 µM
[28] = second compound 3.16 µM, first compound 0.1 µM
[29] = second compound 3.16 µM, first compound 0.316 µM
[30] = second compound 3.16 µM, first compound 1 µM
[31] = second compound 10 µM, first compound 0.00316 µM
[32] = second compound 10 µM, first compound 0.01 µM
[33] = second compound 10 µM, first compound 0.0316 µM
[34] = second compound 10 µM, first compound 0.1 µM
[35] = second compound 10 µM, first compound 0.316 µM
[36] = second compound 10 µM, first compound 1 µM
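Also: spheroids exposed to the agents for 7 days.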

CCc1c2c(nc3ccc(O)cc13)-c1cc3c(c(=O)n1C2)COC(=O)[C@]3(O)CC + CN1CCN(c2cc(C(=O)Nc3cc4cc(-c5cnn(C)c5)ccc4cn3)ccn2)CC1
active: viability, T/C [2] 1.41% | viability, T/C [3] 2.09% | viability, T/C [4] 0.42% | viability, T/C [5] 0.89% | viability, T/C [6] 2.49% | viability, T/C [8] 2.12% | viability, T/C [9] 2.78% | viability, T/C [10] 0.32% | viability, T/C [11] 1.24% | viability, T/C [12] 0.18% | viability, T/C [13] 7.1% | viability, T/C [14] 3.19% | viability, T/C [15] 1.44% | viability, T/C [16] 0.21% | viability, T/C [17] 0.41% | viability, T/C [18] 0.05% | viability, T/C [19] 0.07% | viability, T/C [20] 1.93% | viability, T/C [21] 2.72% | viability, T/C [22] 0.03% | viability, T/C [23] 0.04% | viability, T/C [24] 0.78% | viability, T/C [25] 0.96% | viability, T/C [26] 0.54% | viability, T/C [27] 0.11% | viability, T/C [28] 2.41% | viability, T/C [29] 2.52% | viability, T/C [30] 0.11% | viability, T/C [31] 0.51% | viability, T/C [32] 0.1% | viability, T/C [33] 1.56% | viability, T/C [34] 0.07% | viability, T/C [35] 1.03% | viability, T/C [36] 2.56%
< 3.16 nM: IC50 (second compound 0.0316 µM) | IC50 (second compound 0.1 µM) | IC50 (second compound 0.316 µM) | IC50 (second compound 1 µM) | IC50 (second compound 3.16 µM) | IC50 (second compound 10 µM)
inactive: viability, T/C [1] 12.2% | viability, T/C [7] 10.9%

CC1COCCN1c1cc(C2(S(C)(=N)=O)CC2)nc(-c2ccnc3[nH]ccc23)n1 (stereo unspecified) + CNC(=O)c1ccc(Nc2nc(OC3CCCC3)c3c(-c4ccc5nc(C)oc5c4)c[nH]c3n2)c(OC)c1
< 31.6 nM: IC50 (second compound 0.1 µM) | IC50 (second compound 0.316 µM) | IC50 (second compound 1 µM) | IC50 (second compound 3.16 µM) | IC50 (second compound 10 µM)
216 nM: IC50 (second compound 0.0316 µM)
active: viability, T/C (second compound 0.0316 µM, first compound 10 µM) 5.59% | viability, T/C [11] 8.26% | viability, T/C [12] 9.68% | viability, T/C (second compound 0.1 µM, first compound 3.16 µM) 5.72% | viability, T/C (second compound 0.1 µM, first compound 10 µM) 3.41% | viability, T/C [16] 9.55% | viability, T/C [17] 8.53% | viability, T/C [18] 6.94% | viability, T/C (second compound 0.316 µM, first compound 3.16 µM) 5.01% | viability, T/C (second compound 0.316 µM, first compound 10 µM) 4.53% | viability, T/C [21] 8.51% | viability, T/C [22] 8.26% | viability, T/C [23] 8.32% | viability, T/C [24] 6.7% | viability, T/C (second compound 1 µM, first compound 3.16 µM) 5.13% | viability, T/C (second compound 1 µM, first compound 10 µM) 2.61% | viability, T/C [28] 10.7% | viability, T/C [29] 8.57% | viability, T/C [30] 7.75% | viability, T/C (second compound 3.16 µM, first compound 3.16 µM) 4.82% | viability, T/C (second compound 3.16 µM, first compound 10 µM) 2.48% | viability, T/C [35] 8.76% | viability, T/C [36] 8.59% | viability, T/C (second compound 10 µM, first compound 3.16 µM) 5.88% | viability, T/C (second compound 10 µM, first compound 10 µM) 2.34%
inactive: viability, T/C [3] 64.5% | viability, T/C [4] 54.4% | viability, T/C [5] 45.9% | viability, T/C [6] 39.2% | viability, T/C (second compound 0.0316 µM, first compound 3.16 µM) 18.9% | viability, T/C [9] 13.4% | viability, T/C [10] 10.1% | viability, T/C [15] 9.78% | viability, T/C [27] 10.1% | viability, T/C [33] 12.3% | viability, T/C [34] 10.4%

CCN1CCN(Cc2ccc(Nc3ncc(F)c(-c4cc(F)c5nc(C)n(C(C)C)c5c4)n3)nc2)CC1 + CNC(=O)c1ccc(Nc2nc(OC3CCCC3)c3c(-c4ccc5nc(C)oc5c4)c[nH]c3n2)c(OC)c1
< 3.16 nM: IC50 (second compound 0.1 µM) | IC50 (second compound 0.316 µM) | IC50 (second compound 1 µM) | IC50 (second compound 3.16 µM) | IC50 (second compound 10 µM)
54.9 nM: IC50 (second compound 0.0316 µM)
inactive: viability, T/C [1] 53.3% | viability, T/C [2] 60.8% | viability, T/C [3] 46.3% | viability, T/C [4] 48.5% | viability, T/C [5] 44.6% | viability, T/C [6] 36.1% | viability, T/C [7] 12.7% | viability, T/C [8] 11.1% | viability, T/C [9] 13.1% | viability, T/C [10] 13.4% | viability, T/C [11] 15.7% | viability, T/C [12] 19.4% | viability, T/C [13] 11.2% | viability, T/C [14] 11.9% | viability, T/C [15] 11.8% | viability, T/C [16] 12.6% | viability, T/C [17] 17.2% | viability, T/C [18] 14.6% | viability, T/C [19] 9.58% | viability, T/C [20] 12% | viability, T/C [21] 12.7% | viability, T/C [22] 12.3% | viability, T/C [23] 14.1% | viability, T/C [24] 15.2% | viability, T/C [25] 12% | viability, T/C [26] 10.5% | viability, T/C [27] 12.8% | viability, T/C [28] 15% | viability, T/C [29] 15.9% | viability, T/C [30] 16.7% | viability, T/C [31] 14.5% | viability, T/C [32] 11.4% | viability, T/C [33] 15.1% | viability, T/C [34] 15.1% | viability, T/C [35] 17.6% | viability, T/C [36] 13.1%

From PubChem BioAssay AID2060620 (Molecular Pharmacology Branch, DTP, NCI, 2025)
